Values joined by “and” are separate entries in the source; they are usually repeats but may differ in a detail not shown here. Equal values may be shown once. Read-outs that look alike come from different tables or passages of the source.
How the values were obtained:
[1] = system: bronchial carcinoma (lung cancer); assay: Therapy outcome of chemotherapy in patients, assessed by computer tomography after two to three cycles; type: in vivo, human; design: key: PR=partial response (i.e. the carcinoma has become detectably smaller); NC=“No Change”=zero growth of the carcinoma; Progress=the carcinoma has continued to grow, no therapeutic success; settings: patient tumor ID 282, NSCLC/St. IV; without platinum derivatives
Description: The therapy outcome, namely the change or the state of the tumor after two to three cycles of treatment compared to the state before the start of treatment, has been analyzes by computer tomography and classified on the basis of the “standard”—rating scale known and conventional in the art as class I=complete remission (CR), class II=partial remission (PR), class III=zero growth (“no change”, NC) and class IV=Progress (progressive tumor growth). The therapy outcomes achieved are shown in table 1, column 5 and in table 2 in column 3 of each group (1 to 4).

[2] = system: lung adenocarcinoma cell strain A240286S; assay: Verification test of cisplatin concentrations by IC50 determination (cell counting); type: cell-based, human; settings: 72 hours; 15 evaluable test preparations; read-out: IC50-values of A240286S cells in the verification tests, average
Protocol: The final concentration gradients were pre-incubated for approximately 30 minutes under standard conditions (see above). […] The culture plate was then incubated, in parallel with the culture plate fitted with the tumor digests, for 72 hours under standard conditions. In the batches of the verification test (with the cells of the lung adenocarcinoma cell strain A240286S) the culture medium was decanted after the end of incubation. The present cellular layers were rinsed with PBS, drained and then removed from the culture vessel with Accutase. The cells were isolated by passing them through a blunt cannula no. 20. Using a cell-counting-and-analyzing apparatus (here the Casy I Cell Analyzer from Roche, Basel), the cell density was determined for each test batch and reduced by the inoculum.

[3] = system: tumor cells of lung cancer (bronchial carcinoma) tissue samples; assay: Chemosensitivity test (IC50 determination) by colony formation in tumor digests ex vivo; type: cell-based, human
Protocol: Parts of freshly (under general anesthesia of the patient) taken (here biopsied) lung cancer (bronchial carcinoma) tissue were transported to the laboratory and processed immediately for IC50 determination.
The transport to the laboratory should take place in chilled culture medium. For this purpose in particular HEPES- and NaHCO3-buffered, preferably flavin-free RPMI 1640 culture medium containing 10% fetal bovine serum, 100 IU/mL penicillin G, 100 ug/mL streptomycin, 20 μg/mL Amikacin (as antibiotics) and […] Voriconazole (as an antifungal agent) are suitable.
In the laboratory, this tumor tissue samples were cleaned, weighed, minced and suspended in culture medium.
For this purpose in particular the method according to DE 102012003700 B3 is suitable, wherein about 5.5 mg tumor tissue sample per 1 mL of culture medium are subjected to enzymatic digestion with collagenase, preferably by using Clostridium histolytikum collagenase (Sigma, 230 CDU/mL), in a Petri dish under standard conditions in a gassing incubator (36-37° C., 3.5% CO2 in water vapor saturated air) for 4-5 hours.
Following the collagenase digestion, the digestion product is centrifuged at 50×g, the supernatant is discarded and the pellet is resuspended in 1 mL of fresh culture medium. With this resuspension—hereinafter referred to as “tumor digest”—the chemosensitivity test (IC50 determination) is performed
The thus prepared culture plates were pre-incubated for about 1 hour under standard conditions (i.e.: gassing incubator; 36-37° C.; 3.5% CO2 in water vapor saturated air). Subsequently, 150 μl tumor digest were added to these pre-incubated wells, they were incubated for 72 hours under standard conditions (see above), and then analyzed microscopically.
After the end of incubation, in all tumor digest test preparations the culture medium was removed, and the existing cell colonies were rinsed with phosphate buffered saline (PBS) and drained. Subsequently, the cells were fixed with methanol at minus (−) 25° C. for 5 to 10 minutes and then subjected to Giemsa staining according to Gurr.

Nc1ccn([C@@H]2O[C@H](CO)[C@@H](O)C2(F)F)c(=O)n1 [Gemcitabine]
Therapy outcome [1]: Progress

N.N.[Cl][Pt][Cl] [cisplatin]
IC50 [2]: 1.2 µM
IC50 ([3]; Group 1 (IC50 < 5 μM), 3 tumor samples, read-out: IC50 mean value): 3.64 µM
IC50 ([3]; Group 2 (IC50 ≧ 5 < 8 μM), 7 tumor samples, read-out: IC50 mean value): 6.73 µM and 6.72 µM
IC50 ([3]; Group 3 (IC50 ≧ 8 bis 25.6 μM), 5 tumor samples, read-out: IC50 mean value): 21.1 µM
IC50 ([3]; tumor sample ID 220, SCLC/St. IV, 72 hours, colonies of epithelial tumor cells, read-out: IC50): 2.6 µM
IC50 ([3]; tumor sample ID 221, NSCLC/St. IV, 72 hours, read-out: IC50): 7.77 µM
IC50 ([3]; tumor sample ID 228, NSCLC/St. IV, 72 hours, read-out: IC50): > 26 µM
IC50 ([3]; tumor sample ID 233, NSCLC/St. IV, 72 hours, read-out: IC50): > 26 µM
IC50 ([3]; tumor sample ID 245, NSCLC/St. IV, 72 hours, read-out: IC50): 7.74 µM
IC50 ([3]; tumor sample ID 255, SCLC/St. IV, 72 hours, read-out: IC50): 4.58 µM
IC50 ([3]; tumor sample ID 258, NSCLC/St. IV, 72 hours, read-out: IC50): 16.7 µM
IC50 ([3]; tumor sample ID 260, NSCLC/St. IIIb, 72 hours, read-out: IC50): 5.61 µM
IC50 ([3]; tumor sample ID 272, SCLC/St. IV, 72 hours, read-out: IC50): 21 µM
IC50 ([3]; tumor sample ID 275, NSCLC/St. IV, 72 hours, read-out: IC50): 5.38 µM
IC50 ([3]; tumor sample ID 277, NSCLC/St. IIIa, 72 hours, read-out: IC50): 7.58 µM
IC50 ([3]; tumor sample ID 278, NSCLC/St. IV (adenocarcinoma), 72 hours, read-out: IC50): 5.25 µM
IC50 ([3]; tumor sample ID 279, NSCLC/St. IV (squamous cell carcinoma), 72 hours, read-out: IC50): 3.73 µM
IC50 ([3]; tumor sample ID 282, NSCLC/St. IV, 72 hours, read-out: IC50): 14.8 µM
IC50 ([3]; tumor sample ID 294, NSCLC/St. IV, 72 hours, read-out: IC50): 7.7 µM
IC50 ([3]; tumor sample ID 297, NSCLC/St. IV, 72 hours, read-out: IC50): 25.6 µM
IC50 ([3]; tumor sample ID 311, NSCLC/KI. IIIb, 72 hours, read-out: IC50): 22.1 µM
IC50 ([3]; tumor sample ID 314, NSCLC/KI. IV, 72 hours, read-out: IC50): 20.5 µM
